# Measurements published in patent US5880130A, “4,6-dianilino-pyrimidine derivatives, their preparation and their use as tyrosine kinase inhibitors” (Zeneca Limited, priority 1993, dated 1999).
# How the values were obtained:
# [1] = target: T1, EGF receptor tyrosine kinase (Homo sapiens, UniProt P00533); experiment: Test (a): in vitro inhibition of EGF receptor tyrosine kinase; format: biochemical, human (A-431 cells, derived from human vulval carcinoma); details: A-431 cell enzyme, [γ-32P]ATP/peptide phosphorylation, 25° C. 10 minutes
# T1 construct: Receptor tyrosine kinase was obtained in partially purified form from A-431 cells; endogenous in cells; host or cells: A-431 cells (human vulval carcinoma); Triton X-100 solubilised membrane fraction
# Procedure: (a) An in vitro assay which determines the ability of a test compound to inhibit the enzyme EGF receptor tyrosine kinase. Receptor tyrosine kinase was obtained in partially purified form from A-431 cells (derived from human vulval carcinoma) by procedures related to those described by Carpenter et al., J. Biol. Chem., 1979, 254, 4884, Cohen et al., J. Biol. Chem., 1982, 257, 1523 and by Braun et al., J. Biol. Chem., 1984, 259, 2051.
# A-431 cells were grown to confluence using Dulbecco's modified Eagle's medium (DMEM) containing 5% fetal calf serum (FCS). The obtained cells were homogenised in a hypotonic borate/EDTA buffer at pH 10.1. The homogenate was centrifuged at 400 g for 10 minutes at 0°-4° C. The supernatant was centrifuged at 25,000 g for 30 minutes at 0°-4° C. […]
# The test compound/EGF mixture solution (5 μl) was added to the test enzyme solution (10 μl) and the mixture was incubated at 0-4° C. for 30 minutes. […] Radioactivity present in the filter paper was measured using a liquid scintillation counter (Sequence A). […]
# Receptor tyrosine kinase inhibition was calculated as follows: [formula]
# The extent of inhibition was then determined at a range of concentrations of test compound to give an IC50 value.
# liver hepatocyte growth = experiment: Test (c): inhibition of TGFα-stimulated liver hepatocyte growth in rats; format: in vivo; details: Rattus norvegicus, male rats, usually oral, TGFα 400 μg/kg subcutaneously, BrdU uptake, approximate ED50
# Procedure: (c) An in vivo assay in a group of male rats which determines the ability of a test compound (usually administered orally as a ball-milled suspension in 0.5% polysorbate) to inhibit the stimulation of liver hepatocyte growth caused by the administration of the growth factor TGFα (400 μg/kg subcutaneously, usually dosed twice, 3 and 7 hours respectively after the administration of the test compound).
# In a control group of rats, the administration of TGFα causes on average a 5-fold stimulation of liver hepatocyte growth.
# Cell-growth in the control and test animals is determined as follows:
# On the morning of the day after the dosing of the test compound (or 0.5% polysorbate in the control group), the animals are dosed with bromodeoxyuridine (BrdU; 100 mg/kg intraperitoneally). The animals are killed four hours later and the livers are excised. […] Further tests were carried out using a range of doses of the test compounds to allow the calculation of an approximate ED50 value for the inhibition of liver hepatocyte proliferation as determined by inhibition of the uptake of BrdU.
# [2] = tested on: human naso-pharyngeal cancer cell line KB; experiment: Test (b): inhibition of EGF-stimulated growth of the cancer cell line KB; format: cell-based; details: 72 h, KB cell growth with EGF (10 ng/ml), 3 days, MTT
# Procedure: (b) An in vitro assay which determines the ability of a test compound to inhibit the EGF-stimulated growth of the human naso-pharyngeal cancer cell line KB.
# KB cells were seeded into wells at a density of 1×10^4 -1.5×10^4 cells per well and grown for 24 hours in DMEH supplemented with 5% FCS (charcoal-stripped). Cell growth was determined after incubation for 3 days by the extent of metabolism of MTT tetrazolium dye to furnish a bluish colour. Cell growth was then determined in the presence of EGF (10 ng/ml) or in the presence of EGF (10 ng/ml) and a test compound at a range of concentrations. An IC50 value could then be calculated.
# [3] = tested on: another carcinoma which does not express EGF receptor tyrosine kinase; details: Toi et al. 1990; cited from earlier work
# [4] = tested on: transplanted human mammary carcinoma which expresses EGF receptor tyrosine kinase; details: athymic nude mice; Toi et al. 1990; cited from earlier work
# T1 sequence (P00533 25-1210): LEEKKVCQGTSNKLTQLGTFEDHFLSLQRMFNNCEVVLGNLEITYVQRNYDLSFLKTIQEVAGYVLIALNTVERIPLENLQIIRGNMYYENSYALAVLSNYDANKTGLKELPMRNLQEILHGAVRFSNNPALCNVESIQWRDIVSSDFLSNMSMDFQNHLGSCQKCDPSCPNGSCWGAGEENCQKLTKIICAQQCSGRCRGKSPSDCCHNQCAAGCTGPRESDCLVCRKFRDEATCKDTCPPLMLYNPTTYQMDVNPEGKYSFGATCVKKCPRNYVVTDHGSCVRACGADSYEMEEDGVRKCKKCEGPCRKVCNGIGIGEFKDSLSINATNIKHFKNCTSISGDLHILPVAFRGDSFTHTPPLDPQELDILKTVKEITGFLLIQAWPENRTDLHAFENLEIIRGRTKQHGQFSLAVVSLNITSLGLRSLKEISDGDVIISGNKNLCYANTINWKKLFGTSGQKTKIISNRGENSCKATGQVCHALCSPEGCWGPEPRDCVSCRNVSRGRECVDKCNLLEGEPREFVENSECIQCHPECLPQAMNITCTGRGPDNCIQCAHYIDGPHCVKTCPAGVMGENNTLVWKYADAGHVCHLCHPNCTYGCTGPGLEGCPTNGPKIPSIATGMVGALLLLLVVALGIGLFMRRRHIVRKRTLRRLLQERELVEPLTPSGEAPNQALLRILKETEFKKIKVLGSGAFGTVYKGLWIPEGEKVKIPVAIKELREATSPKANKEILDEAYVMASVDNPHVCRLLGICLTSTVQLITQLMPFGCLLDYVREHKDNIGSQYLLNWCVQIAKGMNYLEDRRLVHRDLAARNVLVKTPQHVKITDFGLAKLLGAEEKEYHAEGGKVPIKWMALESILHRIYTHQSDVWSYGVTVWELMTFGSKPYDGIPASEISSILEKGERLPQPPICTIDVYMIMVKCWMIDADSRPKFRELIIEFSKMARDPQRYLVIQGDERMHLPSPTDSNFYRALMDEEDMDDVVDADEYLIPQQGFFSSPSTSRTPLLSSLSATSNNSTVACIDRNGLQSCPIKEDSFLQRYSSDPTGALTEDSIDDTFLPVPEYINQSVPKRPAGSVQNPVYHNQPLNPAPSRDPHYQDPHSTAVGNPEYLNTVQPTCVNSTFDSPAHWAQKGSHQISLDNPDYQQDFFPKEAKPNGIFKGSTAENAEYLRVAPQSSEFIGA
IC50 [1] [nM],IC50 [2] [nM],SMILES,ED50 (liver hepatocyte growth) [mg/kg],effect on growth of another carcinoma which does not express EGF receptor tyrosine kinase [3],effect on growth of transplanted human mammary carcinoma expressing EGF receptor tyrosine kinase [4]
240,1100,"Cc1cccc(Nc2cc(Nc3cccc(C)c3)ncn2)c1 [4,6-di-(3'-methylanilino)pyrimidine]",< 12.5,,
,1070,Cc1cccc(Nc2cc(Nc3ccc(OCCO)cc3)ncn2)c1 [4-[4'-(2-hydroxyethoxy)anilino]6-(3'-methylanilino)pyrimidine],< 12.5,,
10,310,Cc1cccc(Nc2cc(Nc3ccc(OCC(O)CN(C)C)cc3)ncn2)c1 (stereo not drawn) [4-[4'-(3-dimethylamino-2-hydroxypropoxy)anilino]6-(3'-methylanilino)pyrimidine],,,
,,O=CN/C=C/c1cc(O)ccc1O [erbstatin],,without effect on the growth,specifically attenuates the growth
